Molecular target: Brd4 bromodomain 1 (BRD4(1)) (Homo sapiens, UniProt O60885)
Assay: Inhibition of tetra-acetylated histone H4 binding to Brd4 bromodomain 1, measured by FRET (HTRF)
Design: made in house; host or cells: E. coli BL21(DE3)
Conditions: 2 h at room temperature
Description: Proteins were cloned and overexpressed with a N-terminal 6×His tag, then purified by nickel affinity followed by size exclusion chromatography. Briefly, E. coli BL21(DE3) cells were transformed with a recombinant expression vector encoding N-terminally Nickel affinity tagged bromodomains from Brd2, Brd3, Brd4. Cell cultures were incubated at 37° C. with shaking to the appropriate density and induced overnight with IPTG. The supernatant of lysed cells was loaded onto Ni-IDA column for purification. Eluted protein was pooled, concentrated and further purified by size exclusion chromatography. Fractions representing monomeric protein were pooled, concentrated, aliquoted, and frozen at −80° C. for use in subsequent experiments.
Binding of tetra-acetylated histone H4 and BET bromodomains was confirmed by a Homogenous Time Resolved Fluorescence Resonance Energy Transfer (HTRF®) method. N-terminally His-tagged bromodomains (200 nM) and biotinylated tetra-acetylated histone H4 peptide (25-50 nM, Millipore) were incubated in the presence of Europium Cryptate-labeled streptavidin (Cisbio Cat. #610SAKLB) and XL665-labeled monoclonal anti-His antibody (Cisbio Cat. #61HISXLB) in a white 96 well microtiter plate (Greiner). For inhibition assays, serially diluted test compound was added to these reactions in a 0.2% final concentration of DMSO. Duplicate wells were used for each concentration tested. Final buffer concentrations were 30 mM HEPES pH 7.4, 30 mM NaCl, 0.3 mM CHAPS, 20 mM phosphate pH 7.0, 320 mM KF, 0.08% BSA. After a 2 h incubation at room temperature, fluorescence was measured at 665 and 620 nm with a SynergyH4 plate reader (Biotek). The binding inhibitory activity was shown by a decrease in 665 nm relative to 620 nm fluorescence. IC50 values were determined from a dose response curve.

SMILES | IC50
Cc1nc2c(-c3ncsc3C)cc(-c3c(C)noc3C)cc2[nH]1 [Example Compound 113, 3,5-dimethyl-4-(2-methyl-4-(5-methyl-thiazol-4-yl)-1H-benzo[d]imidazol-6-yl)isoxazole] | 0.3 to 3 µM
Cc1noc(C)c1-c1cc(-c2c(C)noc2C)c2nc(NCc3ccccc3)[nH]c2c1 [Example Compound 31, N-benzyl-4,6-bis(3,5-dimethylisoxazol-4-yl)-1H-benzo[d] imidazol-2-amine] | ≤ 0.3 µM
Cc1nc2c(-c3sc(C)nc3C)cc(-c3sc(C)nc3C)cc2[nH]1 [Example Compound 168, 5,5′-(2-methyl-1H-benzo[d]imidazole-4,6-diyl) bis(2,4-dimethylthiazole)] | 3 to 30 µM
Cc1nc2c(-c3ccc(Cl)cc3C)cc(-c3c(C)noc3C)cc2[nH]1 [Example Compound 90, 4-(4-(4-chloro-2-methyl-phenyl)-2-methyl-1H-benzo[d]imidazol-6-yl)-3,5-dimethyl isoxazole] | 0.3 to 3 µM
Cc1ccc(C(N)=O)cc1-c1cc(-c2c(C)noc2C)cc2[nH]c(NCc3ccccc3)nc12 [Example Compound 220, 3-(2-(benzyl-amino)-6-(3,5-dimethylisoxazol-4-yl)-1H-benzo[d]imidazol-4-yl)-4-methyl-benzamide] | ≤ 0.3 µM
Cc1ccc(-c2cc(-c3c(C)noc3C)cc3[nH]c(C)nc23)nn1 [Example Compound 86, 3,5-dimethyl-4-(2-methyl-4-(6-methyl-pyridazin-3-yl)-1H-benzo[d]imidazol-6-yl)isoxazole] | 0.3 to 3 µM
Cc1nc2c(-c3cc(C(=O)O)ccc3C)cc(-c3c(C)noc3C)cc2[nH]1 [Example Compound 75, 3-(6-(3,5-dimethyl-isoxazol-4-yl)-2-methyl-1H-benzo[d]imidazol-4-yl)-4-methyl benzoic acid] | 0.3 to 3 µM
Cc1noc(C)c1-c1cc(-c2c(C)nn(C)c2C)cc2[nH]cnc12 [Example Compound 14, 3,5-dimethyl-4-(6-(1,3,5-trimethyl-1H-pyrazol-4-yl)-1H-benzo[d]imidazol-4-yl)isoxazole] | 3 to 30 µM
Cc1ccncc1-c1cc(-c2c(C)noc2C)cc2[nH]c(N3CCN(C)CC3)nc12 [Example Compound 199, 3,5-dimethyl-4-(2-(4-methylpiperazin-1-yl)-4-(4-methylpyridin-3-yl)-1H-benzo[d]imidazol-6-yl)isoxazole] | 0.3 to 3 µM
Cc1nc2c(-c3ccccc3C#N)cc(-c3c(C)noc3C)cc2[nH]1 [Example Compound 71, 2-(6-(3,5-dimethyl-isoxazol-4-yl)-2-methyl-1H-benzo[d]imidazol-4-yl)benzonitrile] | 3 to 30 µM
Cc1noc(C)c1-c1cc(-c2c(C)noc2C)c2nc(NCc3cccnc3)[nH]c2c1 [Example Compound 65, 4,6-bis(3,5-dimethyl-isoxazol-4-yl)-N-(pyridin-3-ylmethyl)-1H-benzo[d] imidazol-2-amine] | ≤ 0.3 µM
Cc1noc(C)c1-c1cc(Nc2cnccn2)c2nc[nH]c2c1 [Example Compound 62, 6-(3,5 dimethyl-isoxazol-4-yl)-N-(pyrazin-2-yl)-1H-benzo[d] imidazol-4-amine] | 0.3 to 3 µM
Cc1noc(C)c1-c1cn2ccnc2c(-c2c(C)noc2C)n1 [Example Compound 10, 4,4′-(imidazo [1,2-a]pyrazine-6,8-diyl)bis(3,5-dimethylisoxazole)] | 3 to 30 µM
Cc1noc(C)c1-c1cc(-c2c(C)noc2C)c2nccnc2c1 [Example Compound 159, 4,4′-(quinoxaline-5,7-diyl)bis(3,5-dimethylisoxazole)] | 0.3 to 3 µM
Cc1ccc(C(N)=O)cc1-c1cc(-c2c(C)noc2C)cc2[nH]c(NCc3cccnc3)nc12 [Example Compound 219, 3-(6-(3,5-dimethyl-isoxazol-4-yl)-2-((pyridin-3-ylmethyl)amino)-1H-benzo[d]imidazol-4-yl)-4-methyl-benzamide] | ≤ 0.3 µM
Cc1nc2cc(-c3c(C)noc3C)cc(-c3c(C)noc3C)c2o1 [Example Compound 101, 5,7-bis(3,5-dimethylisoxazol-4-yl)-2-methylbenzo[d]oxazole] | ≤ 0.3 µM
Cc1nc2c(Nc3ncccc3C)cc(-c3c(C)noc3C)cc2[nH]1 [Example Compound 63, 6-(3,5-dimethyl-isoxazol-4-yl)-2-methyl-N-(3-methylpyridin-2-yl)-1H-benzo[d] imidazol-4-amine] | 0.3 to 3 µM
Cc1nc2c(-c3cccc(F)c3C#N)cc(-c3c(C)noc3C)cc2[nH]1 [Example Compound 83, 2-(6-(3,5-dimethyl-isoxazol-4-yl)-2-methyl-1H-benzo[d]imidazol-4-yl)-6-fluoro-benzonitrile] | 0.3 to 3 µM

SMILES | IC50
Cc1nc2c(-c3c(C)cnn3C)cc(-c3c(C)cnn3C)cc2[nH]1 [Example Compound 167, 4,6-bis(1,4-dimethyl-1H-pyrazol-5-yl)-2-methyl-1H-benzo[d] imidazole] | 0.3 to 3 µM
Cc1nc2c(-c3cn(C)nc3C)cc(-c3cn(C)nc3C)cc2[nH]1 [Example Compound 133, 4,6-bis(1,3-dimethyl-1H-pyrazol-4-yl)-2-methyl-1H-benzo[d] imidazole] | 3 to 30 µM
COc1ccccc1S(=O)(=O)Nc1cc(-c2c(C)noc2C)cc2[nH]cnc12 [Example Compound 102, N-(6-(3,5-dimethylisoxazol-4-yl)-1H-benzo[d]imidazol-4-yl)-2-methoxybenzenesulfonamide] | 0.3 to 3 µM
Cc1noc(C)c1-c1cc(-c2c(C)noc2C)c2n[nH]c(=O)n2c1 [Example Compound 149, 6,8-bis(3,5-dimethyl-isoxazol-4-yl)-[1,2,4] triazolo[4,3-a] pyridin-3(2H)-one] | 3 to 30 µM
Cc1ccc(C#N)cc1-c1cc(-c2c(C)noc2C)cc2[nH]c(N3CCOCC3)nc12 [Example Compound 193, 3-(6-(3,5-dimethyl-isoxazol-4-yl)-2-morpholino-1H-benzo[d]imidazol-4-yl)-4-methyl benzonitrile] | ≤ 0.3 µM
Cc1noc(C)c1-c1nc(-c2c(C)noc2C)c2ccccc2n1 [Example Compound 3, 4,4′-(quinazoline-2,4-diyl)bis (3,5-dimethyl isoxazole)] | 3 to 30 µM
Cc1noc(C)c1-c1cc(-c2c(C)nn(C)c2C)c2nc(NCc3cccnc3)[nH]c2c1 [Example Compound 221, 6-(3,5-dimethyl-isoxazol-4-yl)-N-(pyridin-3-ylmethyl)-4-(1,3,5-trimethyl-1H-pyrazol-4-yl)-1H-benzo[d] imidazol-2-amine] | ≤ 0.3 µM
Cc1noc(C)c1-c1cc(-c2c(C)nn(C)c2C)c2nc(N3CCC3)[nH]c2c1 [Example Compound 217] | ≤ 0.3 µM
Cc1nc2c(-c3cn(C)nc3C(F)(F)F)cc(-c3c(C)noc3C)cc2[nH]1 [Example Compound 115, 3,5-dimethyl-4-(2-methyl-4-(1-methyl-3-(trifluoro-methyl)-1H-pyrazol-4-yl)-1H-benzo[d]imidazol-6-yl)isoxazole] | 0.3 to 3 µM
Cc1nc2c(-c3c(C)noc3C)cc(-c3c(C)noc3C)nc2[nH]1 [Example Compound 176, 4,4′-(2-methyl-3H-imidazo[4,5-b]pyridine-5,7-diyl)bis(3,5-dimethylisoxazole)] | 0.3 to 3 µM
Cc1nc2c(N3CCCCC3=O)cc(-c3c(C)noc3C)cc2[nH]1 [Example Compound 122, 1-(6-(3,5-dimethylisoxazol-4-yl)-2-methyl-1H-benzo[d]imidazol-4-yl)piperidin-2-one] | 0.3 to 3 µM
Cc1nc2c(-c3cccc4cccnc34)cc(-c3c(C)noc3C)cc2[nH]1 [Example Compound 111, 3,5-dimethyl-4-(2-methyl-4-(quinolin-8-yl)-1H-benzo[d]imidazol-6-yl)isoxazole] | 0.3 to 3 µM
Cc1noc(C)c1-c1cc(-c2c(C)noc2C)c2nc(N(C)C)[nH]c2c1 [Example Compound 116, 4,6-bis(3,5-dimethyl-isoxazol-4-yl)-N,N-dimethyl-1H-benzo[d] imidazol-2-amine] | 0.3 to 3 µM
Cc1nc2c(-c3cccc(OC(F)(F)F)c3)cc(-c3c(C)noc3C)cc2[nH]1 [Example Compound 96, 3,5-dimethyl-4-(2-methyl-4-(3-(trifluoro-methoxy)phenyl)-1H-benzo[d]imidazol-6-yl)isoxazole] | ≤ 0.3 µM
Cc1nc2c(-c3ccnn3C)cc(-c3ccnn3C)cc2[nH]1 [Example Compound 134, 2-methyl-4,6-bis(1-methyl-1H-pyrazol-5-yl)-1H-benzo[d] imidazole] | 0.3 to 3 µM
CSc1nc2cc(-c3c(C)noc3C)cc(-c3c(C)nn(C)c3C)c2n1C [Example Compound 191, 3,5-dimethyl-4-(1-methyl-2-(methylthio)-7-(1,3,5-trimethyl-1H-pyrazol-4-yl)-1H-benzo[d]imidazol-5-yl)isoxazole] | ≤ 0.3 µM
Cc1nc2c(-c3ccccc3C(F)(F)F)cc(-c3c(C)noc3C)cc2[nH]1 [Example Compound 78, 3,5-dimethyl-4-(2-methyl-4-(2-(trifluoromethyl)phenyl)-1H-benzo[d]imidazol-6-yl)isoxazole] | 0.3 to 3 µM

— patent publication US9999616B2 (ZENITH EPIGENETICS LTD., priority 2013, dated 2018)
